Here are results for 1 molecule from paper PMC2907420 (Journal of pharmaceutical and biomedical analysis, 2010).

SMILES strings stand for the structures.

The target of data set [1] is T1, glycated HSA (gHSA1) (Homo sapiens, UniProt P02768). The note with it: gHSA1 column.
In data set [2] the target is T2, glycated HSA (gHSA2) (Homo sapiens, UniProt P02768). The note with it: gHSA2 column.
Data set [3] deals with T3, glycated HSA (gHSA3) (Homo sapiens, UniProt P02768). The settings on record: gHSA3 column.
The target in data set [4] is T4, glycated HSA (Homo sapiens, UniProt P02768). The settings on record: pH 7.4, 37°C; versus reported Ka of 1.1 × 10^4 M^−1 for normal HSA.
The subject of data set [5] is normal HSA. The settings on record: normal HSA columns, 37°C; cited from earlier work.
For data set [6] the following is noted: depending on storage conditions; cited from earlier work.
The target of data set [7] is T4, glycated HSA. The settings on record: 4°C, comparable glycation conditions; cited from earlier work.
In data set [8] the target is T1, glycated HSA (gHSA1). The data set can be described thus: biochemical.
For data set [9], the target named is T2, glycated HSA (gHSA2). The data set can be described thus: biochemical.
In data set [10] the target is T3, glycated HSA (gHSA3). The data set can be described thus: biochemical.
The mark [11] stands for this setting: binding capacity normalized for protein content.
Setting [12] is: moles of active binding sites, Eqn. 3.

T1 sequence (P02768 25-609): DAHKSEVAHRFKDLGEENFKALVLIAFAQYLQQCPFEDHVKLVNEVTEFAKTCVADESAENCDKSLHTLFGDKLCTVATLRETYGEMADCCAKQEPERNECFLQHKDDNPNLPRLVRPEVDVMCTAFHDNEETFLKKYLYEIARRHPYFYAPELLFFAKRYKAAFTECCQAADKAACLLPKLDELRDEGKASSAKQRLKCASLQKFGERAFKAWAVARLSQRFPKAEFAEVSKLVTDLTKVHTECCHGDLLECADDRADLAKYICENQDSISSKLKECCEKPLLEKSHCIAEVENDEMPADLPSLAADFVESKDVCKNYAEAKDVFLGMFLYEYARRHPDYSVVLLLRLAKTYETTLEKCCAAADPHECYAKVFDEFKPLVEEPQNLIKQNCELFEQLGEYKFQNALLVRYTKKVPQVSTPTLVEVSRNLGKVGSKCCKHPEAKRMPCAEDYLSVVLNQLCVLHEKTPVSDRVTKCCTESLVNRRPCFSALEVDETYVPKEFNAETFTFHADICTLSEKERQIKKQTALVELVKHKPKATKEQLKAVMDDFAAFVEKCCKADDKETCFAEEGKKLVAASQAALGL
T3 sequence (P02768 25-609): as above
T2 sequence (P02768 25-609): as above
T4 sequence (P02768 25-609): as above

What is called Kd is a measure of binding affinity in units of concentration. A lower Kd goes with tighter binding. For the molecule `N[C@@H](Cc1c[nH]c2ccccc12)C(=O)O` [L-Tryptophan, L-tryptophan], the “Specific Activity” value in data set [1] (setting [11]) was 0.36 (± 0.08) mol/mol HSA; in [2] (setting [11]), 0.30 (± 0.05) mol/mol HSA; in [3] (setting [11]) it was 0.31 (± 0.04) mol/mol HSA. Moreover, the mL is reported as 5.0 (± 0.9) × 10^−9 mol in data set [1] (setting [12]), 6.7 (± 1.8) × 10^−9 mol in data set [2] (setting [12]) and 5.8 (± 0.6) × 10^−9 mol in data set [3] (setting [12]). In addition, the “increase in binding affinity (Ka) with glycated HSA versus normal HSA” value in data set [4] is 4.7–5.8 fold. Further, the association equilibrium constant in data set [5] was 11000 M⁻¹. For the same molecule, the “time over which solutions decrease in stability” value in data set [6] was 2 to 9 days. For the same molecule, in data set [7], the “decrease in affinity, glycated HSA versus HSA” value is listed as at most 0.6 fold. Moreover, the equilibrium dissociation constant (Kd) was 19.2 µM in data set [8], 15.6 µM in [9] and 17.5 µM in [10].
